The source made the active and inactive calls. The calls are words filed in the database; no cut-off is given here.
Experiments:
[1] = target: T1, 5-hydroxytryptamine receptor 4 (Homo sapiens, UniProt Q13639); experiment: Displacement of [3H]-GR 113808 from recombinant human brain 5HT4 receptor at 10^-8 M measured after 60 mins by radio ligand binding assay relative to control
[2] = target: T1, 5-hydroxytryptamine receptor 4; experiment: Displacement of [3H]-GR 113808 from recombinant human brain 5HT4 receptor at 10^-6 M measured after 60 mins by radio ligand binding assay relative to control
[3] = Antioxidant activity assessed as DPPH radical scavenging activity measured after 120 mins; format: functional
[4] = Antioxidant activity assessed as […] radical scavenging activity preincubated for 30 mins followed by AAPH addition and measured every minute for 2 hrs by ORAC fluorescein assay relative to trolox; format: functional
[5] = target: Acetylcholinesterase (Homo sapiens, UniProt P22303); experiment: Inhibition of human erythrocytes AChE assessed as reduction in 5-thio-2-nitrobenzoate anion formation using acetylthiocholine iodide as substrate preincubated for 5 mins followed by substrate addition by Ellman's method
[6] = target: T1, 5-hydroxytryptamine receptor 4; experiment: Agonist activity at human HA-tagged 5HT4 receptor expressed in COS7 cells assessed as induction of cAMP production measured after 10 mins by HTRF assay relative to control; format: functional, cell-based
[7] = target: T1, 5-hydroxytryptamine receptor 4; experiment: Displacement of [3H]-GR 113808 from recombinant human brain 5HT4 receptor measured after 60 mins by radio ligand binding assay
[8] = target: T1, 5-hydroxytryptamine receptor 4; experiment: Binding affinity to recombinant human brain 5HT4 receptor by radio ligand binding assay
[9] = test system: SH-SY5Y; experiment: Cytotoxicity against human SH-SY5Y cells assessed as reduction in cell viability at 50 uM measured after 24 hrs by MTT assay relative to control; format: cell-based
[10] = target: T1, 5-hydroxytryptamine receptor 4; experiment: Partial agonist activity at human HA-tagged 5HT4 receptor expressed in COS7 cells assessed as induction of cAMP production measured after 10 mins by HTRF assay; format: functional, cell-based
[11] = test system: SH-SY5Y; experiment: Antioxidant activity in human SH-SY5Y cells assessed as inhibition of t-BuOOH-induced intracellular oxidative stress by measuring ROS level at 10 uM preincubated for 24 hrs followed by t-BuOOH addition and measured after 30 mins by DCFH-DA dye-based fluorescence assay relative to control; format: functional
[12] = test system: SH-SY5Y; experiment: Cytotoxicity against human SH-SY5Y cells assessed as reduction in cell viability at 0.5 to 10 uM after 24 hrs by MTT assay relative to control; format: cell-based
[13] = test system: SH-SY5Y; experiment: Cytotoxicity against human SH-SY5Y cells assessed as reduction in cell viability at 0.5 to 10 uM measured after 24 hrs by MTT assay; format: cell-based
[14] = test system: SH-SY5Y; experiment: Antioxidant activity in human SH-SY5Y cells assessed as inhibition of t-BuOOH-induced intracellular oxidative stress by measuring ROS level at 100 uM preincubated for 24 hrs followed by t-BuOOH addition and measured after 30 mins by DCFH-DA dye-based fluorescence assay; format: functional, cell-based

T1 sequence (Q13639 whole entry): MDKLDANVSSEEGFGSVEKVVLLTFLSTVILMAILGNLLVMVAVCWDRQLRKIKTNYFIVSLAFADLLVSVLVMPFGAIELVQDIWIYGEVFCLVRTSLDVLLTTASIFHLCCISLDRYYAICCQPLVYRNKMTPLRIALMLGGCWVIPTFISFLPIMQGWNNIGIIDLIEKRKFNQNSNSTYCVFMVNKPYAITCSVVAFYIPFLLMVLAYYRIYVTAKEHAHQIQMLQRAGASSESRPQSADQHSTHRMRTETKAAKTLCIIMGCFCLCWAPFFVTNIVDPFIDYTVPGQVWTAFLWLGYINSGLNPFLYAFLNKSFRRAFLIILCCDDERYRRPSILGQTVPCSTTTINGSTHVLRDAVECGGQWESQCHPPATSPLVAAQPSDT
Chain of Acetylcholinesterase (P22303 whole entry): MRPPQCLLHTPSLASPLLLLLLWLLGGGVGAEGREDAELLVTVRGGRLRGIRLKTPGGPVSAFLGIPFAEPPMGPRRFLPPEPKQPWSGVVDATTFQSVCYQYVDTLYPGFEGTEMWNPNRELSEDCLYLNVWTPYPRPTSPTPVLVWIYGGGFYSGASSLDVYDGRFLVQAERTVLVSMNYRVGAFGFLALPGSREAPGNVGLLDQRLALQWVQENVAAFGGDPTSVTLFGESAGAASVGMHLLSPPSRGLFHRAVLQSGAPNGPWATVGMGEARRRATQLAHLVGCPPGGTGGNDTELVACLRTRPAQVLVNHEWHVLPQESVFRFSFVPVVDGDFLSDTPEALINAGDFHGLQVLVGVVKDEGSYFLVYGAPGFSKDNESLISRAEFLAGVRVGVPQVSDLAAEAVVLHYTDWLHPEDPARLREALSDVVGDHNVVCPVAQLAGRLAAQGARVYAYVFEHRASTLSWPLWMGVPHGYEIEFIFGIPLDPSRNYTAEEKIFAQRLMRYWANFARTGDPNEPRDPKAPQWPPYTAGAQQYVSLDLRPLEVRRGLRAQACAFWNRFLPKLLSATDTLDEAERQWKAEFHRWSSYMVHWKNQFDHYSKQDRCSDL

| Structure (SMILES) | inhibition [1] [%] | inhibition [2] [%] | EC50 [3] [nM] | fold change (FC) [4] | IC50 [5] [nM] | Emax [6] [%] | IC50 [7] [nM] | Ki [8] [nM] | Activity [9] [%] | EC50 [10] [nM] | inhibition at 10 µM [11] [%] | Activity [12] [%] | Activity [13] | inhibition [14] | inhibition [11] |
| --- | --- | --- | --- | --- | --- | --- | --- | --- | --- | --- | --- | --- | --- | --- | --- |
| NCCc1c[nH]c2ccc(O)cc12 | 0 | 65 | – | – | – | – | – | – | – | – | – | – | – | – | – |
| COc1cc(N)c(Cl)cc1C(=O)CCC1CCN(Cc2ccc(OCc3ccccc3)c(OCc3ccccc3)c2)CC1 | 3 | 89 | > 250000 | < 0.2 | – | – | – | – | – | – | – | – | – | – | – |
| COc1cc(CN2CCC(CCC(=O)c3cc(Cl)c(N)cc3OC)CC2)ccc1O | 7 | 95 | 180000 | 3.88 | 535 | – | – | – | – | – | – | – | – | – | – |
| COc1cc(/C=C/C(=O)NCCN2CCC(CCC(=O)c3cc(Cl)c(N)cc3OC)CC2)ccc1O | 39 | 100 | 45500 | 1.47 | – | 47 | 101 | 101 | 68 | 4.5 | 50 | 12 | – | – | – |
| COc1ccc(CN2CCC(CCC(=O)c3cc(Cl)c(N)cc3OC)CC2)cc1O | 64 | 100 | 85500 | 3.41 | – | 57 | 14.5 | 12.7 | 40 | 1.4 | 50 | – | Non-Toxic | – | – |
| COc1cc(CN2CCC(CCC(=O)c3cc(Cl)c(N)cc3OC)CC2)ccc1OCc1ccccc1 | 0 | 97 | > 250000 | < 0.2 | – | – | – | – | – | – | – | – | – | – | – |
| COc1cc(N)c(Cl)cc1C(=O)CCC1CCN(Cc2ccc3c(c2)OCO3)CC1 | 22 | 100 | > 250000 | < 0.2 | – | – | – | – | – | – | – | – | – | – | – |
| O=c1c(O)c(-c2ccc(O)c(O)c2)oc2cc(O)cc(O)c12 [QUERCETIN] | – | – | 9300 | 6.5 | – | – | – | – | – | – | – | – | – | – | – |
| COc1cc(N)c(Cl)cc1C(=O)CCC1CCN(Cc2ccc(O)c(O)c2)CC1 | 76 | 100 | 19600 | 3.4 | 138 | 72 | 7.5 | 5.9 | 37 | 2.8 | 50 | – | Non-Toxic | – | – |
| Cc1c(C)c2c(c(C)c1O)CCC(C)(C(=O)O)O2 (stereo not drawn) [TROLOX] | – | – | 22900 | – | – | – | – | – | – | – | – | – | – | Active | – |
| COc1ccc(CN2CCC(CCC(=O)c3cc(Cl)c(N)cc3OC)CC2)cc1OCc1ccccc1 | 7 | 88 | > 250000 | < 0.2 | – | – | – | – | – | – | – | – | – | – | – |
| COc1cc(N)c(Cl)cc1C(=O)CCC1CCN(CCNC(=O)CCCC[C@@H]2CCSS2)CC1 | 26 | 99 | > 250000 | 0.76 | – | – | – | – | 48 | – | – | – | Non-Toxic | – | inactive |

Source: ChEMBL document CHEMBL4359885, “Novel multi target-directed ligands targeting 5-HT4 receptors with in cellulo antioxidant properties as promising leads in Alzheimer's disease” (Eur J Med Chem, 2019)
